Test [1] deals with Scenedesmus acutus. As to the kind of experiment: Peroxidizing phytotoxicity against Scenedesmus acutus assessed as ethane production after 20 hr by gas chromatography. To be noted: read-out: pI50 (converted). It counts as functional, organism-based.
For test [2], the system named is Scenedesmus acutus. Nature of the test: Growth inhibition of Scenedesmus acutus assessed as reduction in packed cell volume. The test is classed as functional, organism-based. To be noted: read-out: pI50 (converted).
In test [3] the target is T1, Protoporphyrinogen IX oxidase (UniProt C1N1S5).
T1 sequence (whole entry): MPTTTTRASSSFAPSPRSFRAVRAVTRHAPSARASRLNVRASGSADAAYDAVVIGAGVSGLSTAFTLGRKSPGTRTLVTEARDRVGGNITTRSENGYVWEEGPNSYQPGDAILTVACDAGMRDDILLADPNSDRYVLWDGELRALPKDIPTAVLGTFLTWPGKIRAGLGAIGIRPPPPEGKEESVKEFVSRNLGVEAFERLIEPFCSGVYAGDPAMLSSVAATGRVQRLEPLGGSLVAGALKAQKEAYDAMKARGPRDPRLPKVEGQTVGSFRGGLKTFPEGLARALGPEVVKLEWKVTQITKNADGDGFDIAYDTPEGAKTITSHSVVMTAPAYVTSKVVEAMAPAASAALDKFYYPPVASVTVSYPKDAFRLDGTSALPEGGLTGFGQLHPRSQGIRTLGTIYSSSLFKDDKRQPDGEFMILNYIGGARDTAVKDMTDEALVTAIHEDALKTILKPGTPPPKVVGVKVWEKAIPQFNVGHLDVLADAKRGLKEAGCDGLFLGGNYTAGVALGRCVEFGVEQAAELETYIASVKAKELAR
Nature of the test: Inhibition of Protoporphyrinogen IX oxidase in Scenedesmus acutus assessed as protoporphyrin IX level per ml of packed cell volume by HPLC. Further: test concentration or dose not given here.

Test [4] has as its target T2, Protoporphyrinogen IX oxidase (Zea mays, UniProt Q9FYV8).
T2 sequence (Q9FYV8 whole entry): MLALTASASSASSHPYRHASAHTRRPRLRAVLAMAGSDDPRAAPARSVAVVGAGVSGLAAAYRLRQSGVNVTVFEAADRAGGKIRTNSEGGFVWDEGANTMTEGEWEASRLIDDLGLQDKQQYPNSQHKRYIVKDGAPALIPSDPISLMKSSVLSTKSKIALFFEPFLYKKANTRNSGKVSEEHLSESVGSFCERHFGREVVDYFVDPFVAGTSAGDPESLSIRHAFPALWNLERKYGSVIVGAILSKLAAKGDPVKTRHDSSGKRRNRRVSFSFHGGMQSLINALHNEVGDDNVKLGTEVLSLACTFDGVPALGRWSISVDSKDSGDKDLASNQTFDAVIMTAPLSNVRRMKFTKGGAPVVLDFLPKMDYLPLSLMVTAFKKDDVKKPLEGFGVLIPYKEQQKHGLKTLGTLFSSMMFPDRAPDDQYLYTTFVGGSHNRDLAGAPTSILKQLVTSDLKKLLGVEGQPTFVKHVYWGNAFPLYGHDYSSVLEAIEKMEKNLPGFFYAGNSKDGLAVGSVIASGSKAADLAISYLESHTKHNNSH
Nature of the test: Inhibition of Protoporphyrinogen IX oxidase in Zea mays cv. Anjou (maize) seedlings etioplasts homogenates assessed as reduction in protoporphyrin IX production by fluorescence spectroscopy. To be noted: read-out: pI50 (converted).

For test [5], the system named is Scenedesmus acutus. As to the kind of experiment: Phytotoxicity against Scenedesmus acutus assessed as reduction in chlorophyll content by spectrophotometry. It counts as functional, organism-based. To be noted: read-out: pI50 (converted).

Structures are written as SMILES. Some results are limits rather than exact numbers.

On to `COC(=O)CSc1cc(/N=c2\sc(=S)n3n2CCCC3)c(F)cc1Cl`, for which the IC50 with Scenedesmus acutus [1] was 389 nM; in the test with Scenedesmus acutus [2], 245 nM; in test [4] it was 120 nM; in the test on Scenedesmus acutus [5], 191 nM. Moreover, in test [3], the Activity is 34.1 nmol.

Regarding `Fc1cc(Cl)ccc1-n1c(=S)n2n(c1=S)CCCC2`, the IC50 in the test on Scenedesmus acutus [1] was 27.5 nM; with Scenedesmus acutus [2], 23.4 nM; in test [4] it was 7.24 nM; in the test on Scenedesmus acutus [5], 18.2 nM. In addition, the Activity in test [3] came to 70.3 nmol.

Regarding `Fc1cc(Cl)ccc1/N=c1\sc(=S)n2n1CCCC2`, the IC50 in the test with Scenedesmus acutus [1] was 91.2 nM; in the test with Scenedesmus acutus [2] it was 120 nM; in test [4], 1100 nM; with Scenedesmus acutus [5], 67.6 nM. Further, the Activity in test [3] was 31.5 nmol.

In the case of `S=c1n(-c2ccccc2)c(=S)n2n1CCCC2`, the IC50 in the test on Scenedesmus acutus [1] is 2040 nM; with Scenedesmus acutus [2], 7940 nM; in test [4], 3240 nM; in the test with Scenedesmus acutus [5] it was 6310 nM. For the same compound, the Activity in test [3] worked out at 13.2 nmol.

Consider `CC(C)Oc1cc(/N=c2\sc(=S)n3n2CCCC3)c(F)cc1Cl`, for which the IC50 is 166 nM with Scenedesmus acutus [1], 13.8 nM in the test with Scenedesmus acutus [2], 617 nM in test [4] and 11.2 nM with Scenedesmus acutus [5]. Moreover, the Activity in test [3] is 30.7 nmol.

Regarding `Cc1cc(Cl)ccc1-n1c(=S)n2n(c1=S)CCCC2`, the IC50 in the test on Scenedesmus acutus [1] is 85.1 nM; in the test on Scenedesmus acutus [2], 105 nM; in test [4], 151 nM; in the test with Scenedesmus acutus [5], 85.1 nM. Moreover, the Activity in test [3] was 63.3 nmol.

With `Cc1cc(Cl)ccc1/N=c1\sc(=S)n2n1CCCC2`, the IC50 was 513 nM in the test with Scenedesmus acutus [1], 457 nM in the test with Scenedesmus acutus [2], 7590 nM in test [4] and 275 nM with Scenedesmus acutus [5]. Besides, the Activity in test [3] stood at 20.3 nmol.

`S=c1n(-c2ccc(OCc3ccc(Cl)cc3)cc2)c(=S)n2n1CCCC2`: the IC50 in the test on Scenedesmus acutus [1] was 22.9 nM; in the test with Scenedesmus acutus [2], 17.4 nM; in test [4], 12 nM; in the test with Scenedesmus acutus [5], 15.5 nM. In test [3], the Activity is 80.3 nmol.

On to `S=c1s/c(=N\c2ccccc2)n2n1CCCC2`, for which the IC50 in the test with Scenedesmus acutus [1] is 4370 nM; in the test on Scenedesmus acutus [2], 14100 nM; in test [4] it was over 31600 nM; in the test with Scenedesmus acutus [5] it was 13800 nM. In test [3], the Activity worked out at 10.8 nmol.

On to `CCOc1cc(Oc2ccc(C(F)(F)F)cc2Cl)ccc1[N+](=O)[O-]` [OXYFLUORFEN], for which the IC50 in the test with Scenedesmus acutus [1] is 41.7 nM; in the test on Scenedesmus acutus [2], 30.9 nM; in test [4], 7.94 nM; in the test with Scenedesmus acutus [5] it was 21.4 nM. Further, the Activity in test [3] was found to be 65.6 nmol.

On to `S=c1s/c(=N\c2ccc(Cl)cc2)n2n1CCCC2`, for which the IC50 is 550 nM with Scenedesmus acutus [1], 339 nM with Scenedesmus acutus [2], 1100 nM in test [4] and 234 nM with Scenedesmus acutus [5]. Moreover, the Activity in test [3] stood at 20.3 nmol.

For the compound `S=c1s/c(=N\c2ccc(Br)cc2)n2n1CCCC2`, the IC50 in the test with Scenedesmus acutus [1] was 550 nM; with Scenedesmus acutus [2] it was 162 nM; in test [4] it was 741 nM; in the test on Scenedesmus acutus [5] it was 148 nM. In addition, in test [3], the Activity worked out at 25.3 nmol.

`C#CCOc1cc(/N=c2\sc(=S)n3n2CCCC3)c(F)cc1Cl`: the IC50 in the test with Scenedesmus acutus [1] is 79.4 nM; in the test on Scenedesmus acutus [2], 7.24 nM; in test [4], 204 nM; with Scenedesmus acutus [5], 5.5 nM. Further, the Activity in test [3] was 63.5 nmol.

Regarding `S=c1n(-c2ccc(Br)cc2)c(=S)n2n1CCCC2`, the IC50 with Scenedesmus acutus [1] is 46.8 nM; in the test on Scenedesmus acutus [2], 64.6 nM; in test [4], 7.24 nM; in the test on Scenedesmus acutus [5], 37.2 nM. For the same compound, the Activity in test [3] was 67.9 nmol.

For `S=c1s/c(=N\c2ccc(OCc3ccc(Cl)cc3)cc2)n2n1CCCC2`, the IC50 in the test on Scenedesmus acutus [1] was 120 nM; in the test on Scenedesmus acutus [2], 21.9 nM; in test [4], 813 nM; in the test on Scenedesmus acutus [5], 20 nM. Besides, the Activity in test [3] was determined as 30.7 nmol.

Turning to `S=c1n(-c2ccc(Cl)cc2)c(=S)n2n1CCCC2`, the IC50 in the test with Scenedesmus acutus [1] is 50.1 nM; in the test with Scenedesmus acutus [2] it was 61.7 nM; in test [4], 6.76 nM; in the test with Scenedesmus acutus [5], 43.7 nM. Moreover, the Activity in test [3] was found to be 50.3 nmol.

On to `C#CCOc1cc(-n2c(=S)n3n(c2=S)CCCC3)c(F)cc1Cl`, for which the IC50 in the test with Scenedesmus acutus [1] was 7.24 nM; in the test on Scenedesmus acutus [2], 2.04 nM; in test [4], 8.91 nM; with Scenedesmus acutus [5] it was 1.7 nM. Besides, the Activity in test [3] turned out to be 87.2 nmol.

For `COC(=O)CSc1cc(-n2c(=S)n3n(c2=S)CCCC3)c(F)cc1Cl`, the IC50 with Scenedesmus acutus [1] is 158 nM; in the test on Scenedesmus acutus [2] it was 186 nM; in the test on Scenedesmus acutus [5], 141 nM. Moreover, the Activity in test [3] amounted to 56 nmol.

In the case of `CC(C)Oc1cc(-n2c(=S)n3n(c2=S)CCCC3)c(F)cc1Cl`, the IC50 in the test with Scenedesmus acutus [1] was 67.6 nM; with Scenedesmus acutus [2], 7.59 nM; in test [4] it was 1.2 nM; in the test with Scenedesmus acutus [5] it was 5.25 nM. The Activity in test [3] is 60.2 nmol.

Source of the values: ChEMBL document CHEMBL3045795, “Peroxidizing Phytotoxic Activity of 1, 3, 4-Thiadiazolidine-2-thiones and 1, 2, 4-Triazolidine-3, 5-dithiones” (J Pestic Sci, 1995).
